Drawing on patent US9115101B2 (Genentech, Inc., priority 2012, dated 2015), this text covers IC50 for 38 compounds.

Each structure is given as a SMILES string.

The target in the first assay is T1, RORc ligand binding domain (Homo sapiens, UniProt P51449).
T1 construct: host or cells: E. coli
T1 sequence (P51449 269-508 limits assumed): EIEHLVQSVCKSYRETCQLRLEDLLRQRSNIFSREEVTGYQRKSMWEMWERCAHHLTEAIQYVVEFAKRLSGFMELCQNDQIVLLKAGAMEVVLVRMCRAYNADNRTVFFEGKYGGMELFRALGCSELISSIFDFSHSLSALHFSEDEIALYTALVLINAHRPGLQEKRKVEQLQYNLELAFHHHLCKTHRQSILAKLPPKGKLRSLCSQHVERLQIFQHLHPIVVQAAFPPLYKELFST
As to the kind of experiment: In Vitro RORc Ligand Binding Assay (25-[3H]hydroxycholesterol radioligand filtration). Particulars: In Vitro RORc Ligand Binding Assay; Table 4; read-out: RORc IC50.
In general, IC50 refers to the point on the concentration scale where inhibition reaches its midpoint. On to `CC(=O)N1CCN(c2ccc(CN3C(C)CCCC(c4ccccc4)S3(=O)=O)c(F)c2)CC1` (single isomer, unassigned) [Example 328, 1-{4-[3-Fluoro-4-(3-methyl-1,1-dioxo-7-phenyl-[1,2]thiazepan-2-ylmethyl)-phenyl]-piperazin-1-yl}-ethanone], for which the IC50 was found to be 1090 nM. On to `CC(=O)N1CCN(c2ccc(CN3[C@@H](C)CCC(c4ccccc4C#N)S3(=O)=O)c(F)c2)CC1` (single isomer, unassigned) [Example 207], for which the half-inhibitory concentration (IC50) was determined as 1810 nM. `CC(=O)N1CCN(c2ccc(CN3[C@@H](C)CCC(c4ccccc4)S3(=O)=O)cn2)CC1` (single isomer, unassigned) [Example 42]: the IC50 came out at 837 nM. On the same count and under the same terms, the figure for `CC(=O)N1CCN(c2ccc(CN3CCCCC(c4ccccc4)S3(=O)=O)cc2)CC1` (single isomer, unassigned) [Example 307, 1-{4-[4-(1,1-Dioxo-7-phenyl-[1,2]thiazepan-2-ylmethyl)-phenyl]-piperazin-1-yl}-ethanone] is 227 nM; for `C[C@H]1CCC(c2ccccc2)S(=O)(=O)N1Cc1ccc(C(=O)N2CCCC2CO)cc1` (stereo partly drawn) [Example 290, (2-Hydroxymethyl-pyrrolidin-1-yl)-[4-((3S)-methyl-1,1-dioxo-6-phenyl-[1,2]thiazinan-2-ylmethyl)-phenyl]-methanone] it is 1500 nM; for `C[C@H]1CCC(c2ccccc2)S(=O)(=O)N1Cc1ccc(N2CCC(c3ncno3)CC2)cc1F` (single isomer, unassigned) [Example 220] it is 43 nM.

For `CC(=O)N1CCN(c2ccc(CN3[C@@H](C)CCC(c4ccccc4)S3(=O)=O)c(C)c2)CC1` (single isomer, unassigned) [Example 131], the IC50 was 501 nM. Turning to `O=c1[nH]nc(C2CCN(c3ccc(CN4CCCCC(c5ccccc5)S4(=O)=O)cc3)CC2)o1` (single isomer, unassigned) [Example 337, 5-{1-[4-(1,1-Dioxo-7-phenyl-[1,2]thiazepan-2-ylmethyl)-phenyl]-piperidin-4-yl}-3H-[1,3,4]oxadiazol-2-one], the IC50 was 24 nM. The same measure, in the same setting: the figure for `CC(=O)N1CC2CC2(NC(=O)c2ccc(CN3[C@@H](C)CCC(c4ccccc4)S3(=O)=O)cc2)C1` (stereo partly drawn) [Example 367, N-(3-Acetyl-3-aza-bicyclo[3.1.0]hex-1-yl)-4-((3S)-methyl-1,1-dioxo-6-phenyl-[1,2]thiazinan-2-ylmethyl)-benzamide] is 2270 nM; for `C[C@H]1CCC(c2ccccc2)S(=O)(=O)N1Cc1ccc(N[C@H]2CC[C@@H](C#N)CC2)cc1F` (single isomer, unassigned) [Example 110] it is 35 nM. With `CS(=O)(=O)N1CCC(Nc2ccc(CN3CCCCC(c4ccccc4)S3(=O)=O)cc2)CC1` (single isomer, unassigned) [Example 326, [4-(1,1-Dioxo-7-phenyl-[1,2]thiazepan-2-ylmethyl)-phenyl]-(1-methanesulfonyl-piperidin-4-yl)-amine], the IC50 worked out at 4 nM. The same measure, in the same setting: the value for `COCCNC(=O)[C@@H]1CN(c2ccc(CN3[C@@H](C)CCC(c4ccccc4)S3(=O)=O)c(F)c2)CCN1C(C)=O` (stereo partly drawn) [Example 393, (S)-1-Acetyl-4-[3-fluoro-4-((3S)-methyl-1,1-dioxo-6-phenyl-[1,2]thiazinan-2-ylmethyl)-phenyl]-piperazine-2-carboxylic acid (2-methoxy-ethyl)-amide] was 697 nM. The same measure, in the same setting: the value for `C[C@H]1CCC(c2ccccc2)S(=O)(=O)N1Cc1ccc(N2CCC(n3cnnc3)CC2)cc1` (single isomer, unassigned) [Example 214] was 239 nM; that for `CC(=O)N1CCN(c2ccc(CN3[C@@H](C)CCC(c4ccc(F)cc4)S3(=O)=O)c(F)c2)CC1` (single isomer, unassigned) [Example 121] was 14 nM; that for `CC(=O)N1CCN(c2ccc(CN3[C@@H](C)CC[C@@H](c4ccccc4Cl)S3(=O)=O)c(F)c2)CC1` (single isomer, unassigned) [Example 204] was 52 nM. On the same count and under the same terms, the figure for `CC(=O)N1CCN(c2ccc(CN3[C@@H](C)CCC(c4ccccc4)S3(=O)=O)c(F)c2)C[C@H]1CO` (stereo partly drawn) [Example 378, 1-{(S)-4-[3-Fluoro-4-((3S)-methyl-1,1-dioxo-6-phenyl-[1,2]thiazinan-2-ylmethyl)-phenyl]-2-hydroxymethyl-piperazin-1-yl}-ethanone] is 61 nM; for `CN/C(=N\C#N)N1CCN(c2ccc(CN3[C@@H](C)CCC(c4ccccc4)S3(=O)=O)c(F)c2)CC1` (stereo partly drawn) [Example 124, 1-(4-{3-Fluoro-4-[(3S)-6-phenyl-3-methyl-1,1-dioxo-[1,2]thiazinan-2-ylmethyl]-phenyl}-piperazin-1-yl)-(Z)-N′-cyano-N-methylacetimid-amide] it is 10 nM. In the case of `CC(=O)N1CCN(c2ccc(CN3[C@@H](C)CCC(c4ccccc4)S3(=O)=O)c(F)c2)CC1` (single isomer, unassigned) [Example 18], the IC50 worked out at 47 nM. Same read-out and setting: the value for `C[C@H]1CCC(c2ccccc2)S(=O)(=O)N1Cc1ccc(N2CCC(c3cc(O)no3)CC2)cc1F` (single isomer, unassigned) [Example 152] was 29 nM; that for `COc1ccc(C2CC[C@H](C)N(Cc3ccc(N4CCN(C(C)=O)CC4)cc3F)S2(=O)=O)cc1` (single isomer, unassigned) [Example 176] was 133 nM; that for `CC(=O)N1CCN(c2ccc(CN3CCCC(c4ccccc4)S3(=O)=O)c(F)c2)CC1` (centres unmarked) [Example 10, 1-{4-[4-(1,1-Dioxo-6-phenyl-[1,2]thiazinan-2-ylmethyl)-3-fluoro-phenyl]-piperazin-1-yl}-ethanone] was 149 nM. `CC(=O)N1CCN(c2ccc(CN3[C@@H](C)CCC(c4cccc(C)c4)S3(=O)=O)c(F)c2)CC1` (single isomer, unassigned) [Example 192]: the IC50 was found to be 6 nM. On to `C[C@H]1CCC(c2ccccc2)S(=O)(=O)N1Cc1ccc(N2CCC(c3n[nH]c(=O)o3)CC2)cc1F` (single isomer, unassigned) [Example 143], for which the IC50 is 44 nM.

Regarding `CC(=O)N1CCN(c2ccc(CN3CC(C)CC(c4ccccc4)S3(=O)=O)c(F)c2)CC1` (single isomer, unassigned) [Example 68, 1-{4-[3-Fluoro-4-(4-methyl-1,1-dioxo-6-phenyl-[1,2]thiazinan-2-ylmethyl)-phenyl]-piperazin-1-yl}-ethanone], the IC50 amounted to 403 nM.

In the case of `CC(=O)N1CCN(c2ccc(CN3CC4(COC4)CC(c4ccccc4)S3(=O)=O)c(F)c2)CC1` (single isomer, unassigned) [Example 258, 1-(4-(4-((7,7-dioxido-8-phenyl-2-oxa-7-thia-6-azaspiro[3.5]nonan-6-yl)methyl)-3-fluorophenyl)piper-azin-1-yl)ethanone], the IC50 was found to be 1040 nM. The same measure, in the same setting: the value for `C[C@H]1CCC(c2ccccc2)S(=O)(=O)N1Cc1ccc(N2CCn3c(n[nH]c3=O)C2)cc1F` (single isomer, unassigned) [Example 158] was 3930 nM. The same measure, in the same setting: the figure for `C[C@H]1CCC(c2ccccc2)S(=O)(=O)N1Cc1ccc(OC2CN(S(C)(=O)=O)C2)cc1F` (single isomer, unassigned) [Example 37] is 194 nM; for `C[C@H]1CCC(c2ccccc2)S(=O)(=O)N1Cc1ccc(C(=O)NC2CCOCC2)cc1` (single isomer, unassigned) [Example 267] it is 2810 nM; for `C[C@H]1CCC(c2ccccc2)S(=O)(=O)N1Cc1ccc(C(=O)NCCN2CCCC2=O)cc1` (stereo partly drawn) [Example 275, 4-((3S)-Methyl-1,1-dioxo-6-phenyl-[1,2]thiazinan-2-ylmethyl)-N-[2-(2-oxo-pyrrolidin-1-yl)-ethyl]-benzamide] it is 6050 nM. The same measure, in the same setting: the value for `CC(=O)N1CCN(c2ccc(CN3[C@H](C)CC(c4ccccc4)S3(=O)=O)c(F)c2)CC1` (stereo partly drawn) [Example 349, 1-{4-[3-Fluoro-4-((3R)-methyl-1,1-dioxo-5-phenyl-isothiazolidin-2-ylmethyl)-phenyl]-piperazin-1-yl}-ethanone] was 310 nM; that for `C[C@H]1CCC(c2ccccc2)S(=O)(=O)N1Cc1ccc(N2CCn3cnnc3C2)cc1F` (single isomer, unassigned) [Example 148] was 1600 nM.

The same assay, now with this note: read-out: RORc IC50.
Turning to `C[C@H]1CCC(c2ccccc2)S(=O)(=O)N1Cc1ccc(OC[C@@H]2CCC(=O)N2)cc1` (single isomer, unassigned) [Example 454], the IC50 is 620 nM.

Take `C[C@H]1CCC(c2ccccc2)S(=O)(=O)N1Cc1ccc(OC[C@H]2CCC(=O)N2)cc1` (single isomer, unassigned) [Example 450]: the IC50 came out at 1050 nM.

Turning to `C[C@H]1CCC(c2ccccc2)S(=O)(=O)N1Cc1ccc(OC2CCOCC2)cc1` (stereo partly drawn) [Example 432, (3S)-Methyl-6-phenyl-2-[4-(tetrahydro-pyran-4-yloxy)-benzyl]-[1,2]thiazinane 1,1-dioxide], the IC50 came to 1110 nM. As to `C[C@H]1CCC(c2ccccc2)S(=O)(=O)N1Cc1ccc(N2CCC(C)(n3cnnc3)CC2)cc1F` (single isomer, unassigned) [Example 413], the IC50 stood at 32 nM. Still for that read-out and setting: the value for `C[C@H]1CCC(c2ccccc2)S(=O)(=O)N1Cc1ccc(N2CCC(C)(n3cnnc3)CC2)cc1F` (single isomer, unassigned) [Example 412] was 585 nM; that for `CC(=O)N1CCN(c2ccc(CN3[C@@H](C)CCC(c4ccccc4)S3(=O)=O)c(F)c2)C[C@H]1C(=O)NCCO` (stereo partly drawn) [Example 399, (S)-1-Acetyl-4-[3-fluoro-4-((3S)-methyl-1,1-dioxo-6-phenyl-[1,2]thiazinan-2-ylmethyl)-phenyl]-piperazine-2-carboxylic acid (2-hydroxy-ethyl)-amide] was 1590 nM; that for `C[C@H]1CCC(c2ccccc2)S(=O)(=O)N1Cc1ccc(N2CCN3C(=O)CC[C@H]3C2)cc1F` (stereo partly drawn) [Example 419, (S)-2-[3-Fluoro-4-((3S)-methyl-1,1-dioxo-6-phenyl-[1,2]thiazinan-2-ylmethyl)-phenyl]-hexahydro-pyrrolo[1,2-a]pyrazin-6-one] was 32 nM.
